Patent US20220142958A1, “MEDICINAL COMPOSITION HAVING EXCELLENT STABILITY” (EA Pharma Co., Ltd., priority 2019, published 2022)

How the values were obtained:
Type in all cases: in vivo, rat
[1] = test system: bilaterally nephrectomized rats; assay: Survival of bilaterally nephrectomized rats after single doses; conditions: for number of rats surviving (of five per group): 48 hours after the administration
Source text: (§1) After quarantine and acclimatization periods of 6 days, fifty-one rats (Crl: CD (SD), male) aged 7 weeks were fed a 100% sucrose diet ad libitum from four days before the surgery. On the day of the surgery, skin incisions were made on the back at the sites of the right and left kidneys under isoflurane anesthesia and the renal capsules were removed to ligate the renal arteries and veins and the ureters using threads before removing the right and left kidneys. A penicillin solution was given upon suturing, and 5 mL of physiological saline was intraperitoneally administered before returning the rats into the breeding cages.
(§2) On a day after the bilaterally nephrectomy, the given doses were calculated based on the weight of the selected animals on that day. Group 1 was given a medium (physiological saline), Groups 2, 3 and 4 were given the Compound A1 solution (0.3, 3 and 30 mg/mL, respectively), and Groups 5, 6, 7 and 8 (5 rats per group) were given the comparative compound (0.3, 1, 3 and 10 mg/mL, respectively), each given a single dose of 1 ml/kg from the tail vein. Prior to the administration (0 hours), and 24 and 48 hours after the administration, approximately 300 μL of blood was collected without anesthesia from the tail vein using capillary tubes for obtaining the serum. The blood for obtaining the serum was left to stand at room temperature, and centrifuged in a high speed refrigerated microcentrifuge (10,000 rpm, 5 min, 4° C.) within a period of 30 minutes to 2 hours after the blood collection to collect the serum.

serum iPTH concentration = assay: Serum iPTH concentration in bilaterally nephrectomized rats after single intravenous administration
Source text: as §1
(§3) On the day of administering the test substance, for example, a day after the bilaterally nephrectomy, approximately 100 μL of blood was collected from the tail vein without anesthesia using a capillary tube, which was centrifuged in a high speed refrigerated microcentrifuge (10,000 rpm, 5 min, 4° C.) to separate the serum. Thereafter, the serum Ca concentration was measured with a dri-chemanalyzer (model number: FUJI DRI-CHEM 7000, manufacturer: FUJI FILM Medical Co., Ltd.) to select individuals with a serum Ca concentration of 8.0 mg/dL or more and less than 14.0 mg/dL.
as §2
(§4) Thereafter, the serum Ca was analyzed with COBAS analyzer (Model number: COBAS INTEGRA 400 plus, manufacturer: Roche Diagnostics K.K.), and the remaining serum was stored in an ultra-low freezer (temperature set to −80±15° C.) until the day of iPTH measurement. On the day of iPTH measurement, the serum was melted at room temperature for measurement.
(§5) A 30 mg/ml Compound A1 solution ([…] of Compound A1 dissolved in 10 ml of physiological saline) was diluted with physiological saline to prepare 0.3 mg/ml and […] Compound A1 solutions.
(§6) 149 mg of etelcalcetide (Ac-c(C) arrrar-NH2) TFA salt (WO 2011/014707 A) was prepared to have pH of 6 to 8 with 7 ml of physiological saline and a 0.5N aqueous NaOH solution, and physiological saline was further added thereto to make 10 ml. The prepared 10 mg/ml comparative compound solution was diluted with physiological saline to obtain 0.3 mg/ml and 1 mg/ml comparative compound solutions.

serum Ca concentration = assay: Serum Ca concentration in bilaterally nephrectomized rats after single intravenous administration
Source text: as §1, §3, §2, §4, §5, §6

[2] = Estimated plasma concentration in bilaterally nephrectomized rats; conditions: 48 hours after single intravenous administration at 3 mg/kg
[3] = 0.3 mg/kg single i.v., 24 hours after the administration
[4] = 0.3 mg/kg single i.v., 48 hours after the administration
[5] = 1 mg/kg single i.v., 24 hours after the administration
[6] = 1 mg/kg single i.v., 48 hours after the administration
[7] = 3 mg/kg single i.v., 24 hours after the administration
[8] = 3 mg/kg single i.v., 48 hours after the administration
[9] = 10 mg/kg single i.v., 24 hours after the administration
[10] = 10 mg/kg single i.v., 48 hours after the administration (n=1)
[11] = logistic curve fitting, 48 hours after the administration vs given dose

CC(=O)N[C@H](CSSC[C@H](N)C(=O)O)C(=O)N[C@H](C)C(=O)N[C@H](CCCNC(=N)N)C(=O)N[C@H](CCCNC(=N)N)C(=O)N[C@H](CCCNC(=N)N)C(=O)N[C@H](C)C(=O)N[C@H](CCCNC(=N)N)C(N)=O [comparative compound, etelcalcetide]
number of rats surviving (of five per group) ([1]; 3 mg/kg group): four
number of rats surviving (of five per group) ([1]; 10 mg/kg group): one
number of dead rats ([1]; relation to dose): increased in a dose-dependent manner
mean serum iPTH concentration (serum iPTH concentration; [3]): 122 pg/mL
mean serum iPTH concentration (serum iPTH concentration; [4]): 510 pg/mL
mean serum iPTH concentration (serum iPTH concentration; [5]): 52 pg/mL
mean serum iPTH concentration (serum iPTH concentration; [6]): 280 pg/mL
mean serum iPTH concentration (serum iPTH concentration; [7]): 22 pg/mL
mean serum iPTH concentration (serum iPTH concentration; [8]): 41 pg/mL
mean serum iPTH concentration (serum iPTH concentration; [9]): 104 pg/mL
mean serum iPTH concentration (serum iPTH concentration; [10]): 230 pg/mL
lower limit value of the serum iPTH concentration (simulated) (serum iPTH concentration; [11]): 48.18 pg/mL
50% effective concentration, EC50 value, for decreasing the serum iPTH concentration (serum iPTH concentration; plasma concentration, rats): 0.04 µg/mL
decrease of serum iPTH and Ca concentrations (serum iPTH concentration; renal failure rat models, during 48 hours after the administration, relation to dose): in a dose-dependent manner
mean serum Ca concentration (serum Ca concentration; [3]): 8.33 mg/dL
mean serum Ca concentration (serum Ca concentration; [4]): 10.44 mg/dL
mean serum Ca concentration (serum Ca concentration; [5]): 6.42 mg/dL
mean serum Ca concentration (serum Ca concentration; [6]): 7.33 mg/dL
mean serum Ca concentration (serum Ca concentration; [7]): 6.82 mg/dL
mean serum Ca concentration (serum Ca concentration; [8]): 5.85 mg/dL
mean serum Ca concentration (serum Ca concentration; [9]): 6.95 mg/dL
mean serum Ca concentration (serum Ca concentration; [10]): 6.65 mg/dL
lower limit value of the serum Ca concentration (simulated) (serum Ca concentration; [11]): 5.880 mg/dL
plasma concentration (estimated) [2]: 130 ng/mL
